Experimental data published in patent publication US10544460B2, “Homeobox transcription factor ventx regulates differentiation and maturation of human dendritic cells” (priority 2013, dated 2020).

Experiments:
VentX [1] = assay: VentX knockdown efficiency in monocytes / monocyte-derived DCs; assay type: cell-based, human; details: 5 days after transfection
Excerpt: Following a recent finding that VentX is expressed in human primary monocytes, VentX expression was examined during primary monocytes to dendritic cells differentiation induced by GM-CSF and IL-4 treatment. […] To explore potential role of VentX in DC differentiation, the effects of VentX knockdown on in vitro DCs differentiation were examined. […] (Iwamoto, et al. 2007 J Immunol 179(3): p. 1449-57; Gabriele, et al. 2004 Blood 103(3): p. 980-7.) To obtain a long-lasting knockdown effect of VentX in monocytes, a morpholino (MO) mediated VentX knockdown strategy was developed. Two different morpholino antisense oligonucleotides were designed (VentX MO and VentX MO-2) and tested for the knockdown efficiency of VentX. […] Freshly isolated CD14^+CD1a^− monocytes differentiate in vitro into immature CD14^−CD1a^+ DCs when cultured with GM-CSF and IL-4. […] To corroborate the role of VentX in regulating DCs differentiation, VentX was ectopically expressed in primary monocytes and the CD14^−CD1a^+ cells were determined after 3 days of cytokines treatment. […]
(§1) Dendritic & Antigen Presenting Cell PCR Array was purchased from SABiosciences (Valencia, Calif.). […] (Wu, et al. 2011 J Clin Invest 121(7): p. 2599-613.) Incorporated BrdU was detected with PE-conjugated anti-BrdU antibody and analyzed with flow cytometry.

human primary monocytes = assay: Primary monocyte to dendritic cell differentiation induced by GM-CSF and IL4 (flow cytometry of surface antigens); assay type: cell-based
Experimental: Peripheral blood mononuclear cells (PBMC) from healthy adult donors at Dana-Farber Cancer Institute were isolated by Ficoll density gradient centrifugation. CD14^+ monocytes were purified from PBMCs using anti-CD14 antibody coated magnetic microbeads (Miltenyi Biotec, Auburn, Calif.). Monocytes were cultured in 12-well plates at 1×10^6 cells/ml with RPMI 1640 medium containing 10% fetal bovine serum (FBS), GM-CSF (100 ng/ml) and IL4 (20 ng/ml) (PeproTech, Rocky Hill, N.J.). Cytokines were added to cultures every 2 or 3 days for a total of 5 days to induce dendritic cells differentiation. Neutralizing antibody against IL6 was purchased from R&D Systems (Minneapolis, Minn.) and used at daily dose of 2.5 μg/ml. Intestinal mucosa was obtained from surgically resected specimens from patients diagnosed with inflammatory bowel diseases including Crohn's disease and ulcerative colitis. Specimens were taken from both inflamed and non-inflamed mucosa and were confirmed macroscopically and microscopically. Lamina propria mononuclear cells were isolated using previously described techniques. (Dillon, et al. 2010 J Immunol 184(12): p. 6612-21; Kamada, et al. 2008 J Clin Invest 118(6): p. 2269-80.) LPDCs were purified as the fraction of CD19^−CD1c^+ cells with magnetic microbeads (Miltenyi Biotec). To promote maturation of DCs, 100 ng/ml of E Coli LPS (Sigma-Aldrich) was added to the medium and further cultured for 24 hours. Experiments with human materials were performed in accordance with guidelines approved by the institutional review committee of Brigham and Women's Hospital. […]
(§2) Phenotypic analyses of DCs and THP1 cells were performed with flow cytometry after immunostaining of cells with fluorescence dye conjugated antibodies (eBioscience, San Diego, Calif.). […] Stained cells were analyzed with FACScan flow cytometer (BD Bioscience) using FlowJo software. Results are expressed as the percentage of positive cells or mean fluorescence intensity (MFI) values after subtraction of the MFI obtained from the isotype control antibody.

DCs = assay type: cell-based, human; details: after MO transfection; data not shown
Excerpt: Following a recent finding that VentX is expressed in human primary monocytes, VentX expression was examined during primary monocytes to dendritic cells differentiation induced by GM-CSF and IL-4 treatment. […] To explore potential role of VentX in DC differentiation, the effects of VentX knockdown on in vitro DCs differentiation were examined. […] (Iwamoto, et al. 2007 J Immunol 179(3): p. 1449-57; Gabriele, et al. 2004 Blood 103(3): p. 980-7.) To obtain a long-lasting knockdown effect of VentX in monocytes, a morpholino (MO) mediated VentX knockdown strategy was developed. Two different morpholino antisense oligonucleotides were designed (VentX MO and VentX MO-2) and tested for the knockdown efficiency of VentX. […] Freshly isolated CD14^+CD1a^− monocytes differentiate in vitro into immature CD14^−CD1a^+ DCs when cultured with GM-CSF and IL-4. (Bell, et al. 2001 J Immunol 166(8): p. 4958-67.) Surface expression of CD1a antigen was examined in monocytes transfected with control MO or VentX MO respectively. […] To corroborate the role of VentX in regulating DCs differentiation, VentX was ectopically expressed in primary monocytes and the CD14^−CD1a^+ cells were determined after 3 days of cytokines treatment. Overexpression of VentX in monocytes greatly accelerated the DCs differentiation (FIG. 1E-F).

IL6 = assay: Cytokine expression in transfected monocytes (reverse transcription PCR and intracellular staining); assay type: cell-based, human
Experimental: To elucidate the mechanisms underlying VentX regulated DCs differentiation and maturation, expression level of cytokines known to be important for DCs development was analyzed by reverse transcription PCR and intracellular staining. […] It has been shown that IL6 inhibits DC differentiation and maturation from both CD14^+ monocytes and CD34^+ progenitor cells. […] The effect of VentX on the activity of […] IL6 promoter luciferase reporter and several deletion mutant constructs was assessed. […] To address this question, neutralizing antibody against IL6 was added to the culture medium of VentX MO transfected monocytes and differentiation of DCs was assessed through flow cytometry analysis of CD1a surface expression.
as §2, with “antibody. […]” for “antibody.”

LPDCs = assay: Pro-inflammatory cytokine mRNA in DCs treated with prednisolone and LPS; assay type: cell-based, human; details: prednisolone, LPS added 24 hours later, harvested at 48 hours, FIG. 6G
Experimental: (§3) FIG. 6: VentX is required for the maturation of lamina propria DCs. (A) LPDCs were isolated from inflamed and non-inflamed intestinal mucosa of five IBD patients. VentX level was determined with real time PCR. (B) LPDCs were transfected with siRNA targeting VentX or control GFP through electroporation followed by culturing in medium for two days. Then cells were stimulated with LPS for overnight to induce maturation and harvested for flow cytometry analysis of surface markers and intracellular cytokines/chemokines. Filled histograms indicate siGFP transfection. […] Results are expressed as the percentage of MFI normalized to control. […] (D) LPDCs transfected with siGFP or siVentX were analyzed for the mRNA expression levels of indicated genes. […] (F) DCs were treated with prednisolone (10 μg/ml) for 48 hours or mock treated, and VentX level was determined with real time PCR. […]
(§4) Aberrant activation of DCs has been implicated in mucosal inflammation in pathogenesis of inflammatory bowl diseases. […] VetnX expression levels in these DCs were determined by RT-PCR methods. […]
as §1

VentX [2] = assay: VentX expression in LPDCs treated with prednisolone (real time PCR); assay type: cell-based, human; details: prednisolone 10 μg/ml, 48 hours, vs mock treated; FIG. 6F
Experimental: as §3, §4, §1

For “5′-GAGCCCGGTTTGCATACACGGCTAA-3′ (morpholino, further chemistry not given here) [VentX MO-2, Morpholino antisense oligonucleotide targeting VentX]”, the “VentX expression in DCs compared with control sequence” value (VentX [1]) was “inhibited VentX expression”.
In the case of “5′-TACTCAACCCTGACATAGAGGGTAA-3′ (morpholino, further chemistry not given here) [VentX MO, Morpholino antisense oligonucleotide targeting VentX]”, the “expression of CD16, CD36, CD64, mannose receptor (MR) and TLR4” value (human primary monocytes; MO transfected DCs) is reported as “remained unchanged”, the “percentage of CD14-CD1a+ cells” value (human primary monocytes; monocytes + GM-CSF and IL4, 5 days, in comparison with control MO, FIG. 1A-B) is reported as “substantial reduction” and the “surface expression of CD1b, CD1c and CD11c” value (human primary monocytes; monocytes + GM-CSF and IL4, 5 days, vs control MO) is reported as “similarly downregulated”. The “VentX expression in DCs compared with control sequence” value (VentX [1]) was “inhibited VentX expression”, the “cell death in DCs” value (DCs) was “did not cause excess cell death” and the “IL1β, TNFα and IL10 expression” value (IL6; MO transfected cells, data not shown) was “no apparent changes”. For the same compound, the IL6 expression (IL6; monocytes + GM-CSF and IL4, 5 days, mRNA and intracellular level, FIGS. 3A and C) was “consistently increased”.
For `C[C@]12C=CC(=O)C=C1CC[C@@H]1[C@@H]2[C@@H](O)C[C@@]2(C)[C@H]1CC[C@]2(O)C(=O)CO` [prednisolone], the “expression of pro-inflammatory cytokines, such as the IL2, TNF, CCL5” value (LPDCs) was “dramatically decreased” and the “VentX expression in LPDCs” value (VentX [2]) was “dramatically decreased”.
